According to US20140329682A1, “METHOD OF CONTROLLING WEED IN A SUGAR CANE FIELD” (SUMITOMO CHEMICAL COMPANY, LIMITED, priority 2011, published 2014):

What was measured:
Type in all cases: in vivo
Amaranthus retroflexus [1] = assay: Herbicidal activity, soil surface spray on day of planting (Example 1); settings: four weeks after treatment, scale 0 to 100
Method: The stem cutting from which a bud had grown to about 1 cm was selected, and the length of the stem cutting was adjusted to be 3 cm, 15 cm or 25 cm. The stem cutting of 3 cm or 15 cm had only one node, and the stem cutting of 25 cm had two nodes. A soil was packed into a 32 cm×25 cm×11 cm plastic pot, and seeds of Amaranthus retroflexus were seeded thereon. […] On the date when the stem cutting was planted, and after planting of the stem cutting, a water-diluted liquid of a flumioxazin water dispersible granule (water dispersible granule containing 51% floumioxazin, trade name: Valor SX, manufactured by Valent USA Corporation) (100 ppm or 250 ppm) was uniformly sprayed on the soil surface with a sprayer at an amount described in Table 1. Thereafter, the pot for a test was placed in a greenhouse. Four weeks after treatment with flumioxazin, phytotoxicity on sugar cane and the herbicidal activity against Amaranthus retroflexus were determined.

Amaranthus retroflexus [2] = assay: Herbicidal activity, spray from upper side of pot, sugar cane at 4 to 5 leaves (Example 2); settings: 125 g (active ingredient)/ha, four weeks after treatment, scale 0 to 100
Method: (§1) A sugar cane, a foliage of which had grown to about 4 to 5 leaves, was selected, and the length of the stem cutting was adjusted to be 8 cm, 15 cm or 25 cm. The 8 cm or 15 cm stem cutting had one node, and the 25 cm stem cutting had two nodes. A soil was packed into a 32 cm×25 cm×11 cm plastic pot, and seeds of Amaranthus retroflexus were seeded thereon. […] On the date when the stem cutting was planted, and after planting of the stem cutting, a water-diluted liquid of a flumioxazin water dispersible granule (water dispersible granule containing 51% flumioxazin, trade name: Valor SX, manufactured by Valent USA Corporation) (250 ppm) was uniformly sprayed with a sprayer from an upper side of the pot at an amount described in Table 2. Thereafter, the pot for a test was placed in a greenhouse. One week after treatment with flumioxazin, phytotoxicity on sugar cane was determined and, four weeks after treatment with flumioxazin, the herbicidal activity against Amaranthus retroflexus was determined.

sugar cane = assay: Phytotoxicity on sugar cane, spray from upper side of pot, sugar cane at 4 to 5 leaves (Example 2); settings: 125 g (active ingredient)/ha, one week after treatment, scale 0 to 100
Method: as §1

Amaranthus retroflexus [3] = assay: Herbicidal activity, spray from upper side of pot, sugar cane at 4 to 5 leaves (Example 3); settings: 70 g (active ingredient)/ha, four weeks after treatment, scale 0 to 100
Method: as §1, with “8” for “8 cm, 15”, “8” for “8 cm or 15”, “saflufenacil (140” for “a flumioxazin water dispersible granule (water dispersible granule containing 51% flumioxazin, trade name: Valor SX, manufactured by Valent USA Corporation) (250”, “3. The water-diluted liquid of saflufenacil was prepared by dissolving a predetermined amount of saflufenacil in acetone containing 2% (w/v) Tween 20, and diluting this solution with water so that the acetone concentration became 10% by volume.” for “2.”, “saflufenacil,” for “flumioxazin,”

SMILES | Herbicidal activity (Amaranthus retroflexus [1]; 50 g (active ingredient)/ha, stem cutting 3 cm) | Herbicidal activity (Amaranthus retroflexus [1]; 50 g (active ingredient)/ha, stem cutting 15 cm) | Herbicidal activity (Amaranthus retroflexus [1]; 50 g (active ingredient)/ha, stem cutting 25 cm) | Herbicidal activity (Amaranthus retroflexus [1]; 125 g (active ingredient)/ha, stem cutting 3 cm) | Herbicidal activity (Amaranthus retroflexus [1]; 125 g (active ingredient)/ha, stem cutting 15 cm) | Herbicidal activity (Amaranthus retroflexus [1]; 125 g (active ingredient)/ha, stem cutting 25 cm) | Herbicidal activity (Amaranthus retroflexus [2]; stem cutting 8 cm) | Herbicidal activity (Amaranthus retroflexus [2]; stem cutting 15 cm) | Herbicidal activity (Amaranthus retroflexus [2]; stem cutting 25 cm) | Phytotoxicity on sugar cane (sugar cane; stem cutting 8 cm (one node)) | Phytotoxicity on sugar cane (sugar cane; stem cutting 15 cm (one node)) | Phytotoxicity on sugar cane (sugar cane; stem cutting 25 cm (two nodes)) | Herbicidal activity (Amaranthus retroflexus [3]; stem cutting 8 cm) | Herbicidal activity (Amaranthus retroflexus [3]; stem cutting 25 cm)
C#CCN1C(=O)COc2cc(F)c(N3C(=O)C4=C(CCCC4)C3=O)cc21 [Flumioxazin, flumioxazin] | 100 | 100 | 100 | 100 | 100 | 100 | 100 | 100 | 100 | 10 | 10 | 30 |  | 
CC(C)N(C)S(=O)(=O)NC(=O)c1cc(-n2c(=O)cc(C(F)(F)F)n(C)c2=O)c(F)cc1Cl [Saflufenacil, saflufenacil] |  |  |  |  |  |  |  |  |  |  |  |  | 100 | 100
